From the NIST ThermoML archive (doi:10.1007/s10765-009-0667-2)

Test: xn = mol fraction of the nth substance listed
Conditions: 101 kPa, Liquid; for mass density: Vibrating tube method

C1CCCCCCC1 [cyclooctane] + CCc1ccccc1
Conditions | mass density, 308.15 K [kg/m3] | mass density, 313.15 K [kg/m3] | viscosity, 308.15 K [mPa·s] | viscosity, 313.15 K [mPa·s]
x2 = 0 | 823.6 | 819.7 | 1.803 | 1.636
x2 = 0.0907 | 824.8 | 820.9 | 1.487 | 1.356
x2 = 0.2033 | 827.1 | 823.2 | 1.206 | 1.11
x2 = 0.3072 | 829.5 | 825.6 | 1.022 | 0.9578
x2 = 0.3701 | 831.2 | 827.2 | 0.9433 | 0.8765
x2 = 0.4761 | 834.2 | 830.2 | 0.8369 | 0.7835
x2 = 0.5798 | 837.5 | 833.4 | 0.7568 | 0.7089
x2 = 0.7008 | 841.7 | 837.6 | 0.6736 | 0.6403
x2 = 0.7922 | 845.1 | 840.9 | 0.6351 | 0.5979
x2 = 0.8908 | 849 | 844.8 | 0.5958 | 0.5629

c1ccccc1 [benzene] + Cc1ccccc1
Conditions | mass density, 308.15 K [kg/m3] | mass density, 313.15 K [kg/m3] | viscosity, 308.15 K [mPa·s] | viscosity, 313.15 K [mPa·s]
x1 = 0.0403 | 853.1 | 848.6 | 0.4943 | 0.468
x1 = 0.1393 | 853.7 | 849.1 | 0.4998 | 0.4681
x1 = 0.2551 | 854.5 | 849.9 | 0.4968 | 0.4693
x1 = 0.3116 | 855 | 850.3 | 0.4968 | 0.469
x1 = 0.3863 | 855.7 | 850.9 | 0.4977 | 0.4705
x1 = 0.5033 | 856.6 | 851.8 | 0.503 | 0.4747
x1 = 0.6139 | 857.8 | 852.9 | 0.5078 | 0.4785
x1 = 0.7301 | 859.1 | 854.1 | 0.5166 | 0.4813
x1 = 0.8551 | 860.8 | 855.7 | 0.5227 | 0.487
x1 = 1 | 862.9 | 857.7 | 0.5272 | 0.4942

c1ccccc1 [benzene] + CCCCCCC
Conditions | mass density, 308.15 K [kg/m3] | mass density, 313.15 K [kg/m3] | viscosity, 308.15 K [mPa·s] | viscosity, 313.15 K [mPa·s]
x1 = 0.1099 | 683.6 | 679.4 | 0.3518 | 0.3342
x1 = 0.2052 | 695.3 | 691.1 | 0.3593 | 0.3356
x1 = 0.2896 | 706.6 | 702.4 | 0.3562 | 0.3387
x1 = 0.4212 | 726.5 | 722.1 | 0.3632 | 0.345
x1 = 0.5078 | 740.9 | 736.4 | 0.3724 | 0.3534
x1 = 0.6087 | 760 | 755.4 | 0.3925 | 0.3667
x1 = 0.7263 | 785.5 | 780.8 | 0.4094 | 0.3879
x1 = 0.7936 | 801.9 | 797.1 | 0.4262 | 0.4031
x1 = 0.8987 | 830.6 | 825.6 | 0.4734 | 0.4408
x1 = 1 | 862.9 | 857.7 | 0.5272 | 0.4942

c1ccccc1 [benzene] + C1CCCCCCC1
x1 = 1
Conditions | mass density [kg/m3] | viscosity [mPa·s]
308.15 K | 862.9 | 0.5272
313.15 K | 857.7 | 0.4942

Cc1ccccc1 [toluene] + CCc1ccccc1
x1 = 1
Conditions | mass density [kg/m3] | viscosity [mPa·s]
308.15 K | 852.8 | 0.494
313.15 K | – | 0.4755
318.15 K | 848.3 | –

Cc1ccccc1 [toluene] + CCCCCCC
Conditions | mass density, 308.15 K [kg/m3] | mass density, 313.15 K [kg/m3] | viscosity, 308.15 K [mPa·s] | viscosity, 313.15 K [mPa·s]
x2 = 0 | 852.8 | 848.3 | 0.494 | 0.4676
x2 = 0.0901 | 830.9 | 826.5 | 0.4631 | 0.4392
x2 = 0.1949 | 807 | 802.6 | 0.4406 | 0.4129
x2 = 0.299 | 786.6 | 782.2 | 0.415 | 0.3944
x2 = 0.3959 | 765.9 | 761.6 | 0.3967 | 0.377
x2 = 0.4836 | 749.6 | 745.4 | 0.3861 | 0.3668
x2 = 0.5809 | 732.8 | 728.6 | 0.3811 | 0.3562
x2 = 0.6809 | 716.6 | 712.5 | 0.3666 | 0.3488
x2 = 0.792 | 699.8 | 695.6 | 0.3575 | 0.341
x2 = 0.8884 | 686.1 | 682 | 0.3605 | 0.3367

CCCCCCC [heptane] + CCc1ccccc1
x1 = 1
Conditions | mass density [kg/m3] | viscosity [mPa·s]
308.15 K | 671.3 | 0.3497
313.15 K | 667.1 | 0.3329

CCCCCCC [heptane] + c1ccccc1
x2 = 0
Conditions | mass density [kg/m3] | viscosity [mPa·s]
308.15 K | 671.3 | 0.3497
313.15 K | 667.1 | 0.3329

Cc1ccccc1 [toluene] + C1CCCCCCC1
x1 = 1
Conditions | mass density [kg/m3] | viscosity [mPa·s]
308.15 K | 852.8 | 0.494
313.15 K | 848.3 | 0.4676

CCCCCCC [heptane] + C1CCCCCCC1
x1 = 1
Conditions | mass density [kg/m3] | viscosity [mPa·s]
308.15 K | 671.3 | 0.3497
313.15 K | 667.1 | 0.3329

Cc1ccccc1 [toluene] + c1ccccc1
x2 = 0
Conditions | mass density [kg/m3] | viscosity [mPa·s]
308.15 K | 852.8 | 0.494
313.15 K | 848.3 | 0.4676

CCc1ccccc1 [ethylbenzene] + c1ccccc1
Conditions | mass density, 308.15 K [kg/m3] | mass density, 313.15 K [kg/m3] | viscosity, 308.15 K [mPa·s] | viscosity, 313.15 K [mPa·s]
x2 = 0 | 853.7 | 849.5 | 0.5652 | 0.5294
x2 = 0.0877 | 854.1 | 849.8 | 0.5584 | 0.5282
x2 = 0.1855 | 854.6 | 850.2 | 0.5563 | 0.5234
x2 = 0.295 | 855.2 | 850.8 | 0.5472 | 0.5172
x2 = 0.4137 | 856 | 851.5 | 0.5392 | 0.5096
x2 = 0.498 | 856.6 | 852.1 | 0.5382 | 0.508
x2 = 0.5965 | 857.5 | 852.8 | 0.5382 | 0.5039
x2 = 0.7108 | 858.7 | 853.9 | 0.5308 | 0.4996
x2 = 0.7904 | 859.7 | 854.8 | 0.5263 | 0.4954
x2 = 0.8983 | 861.2 | 856.2 | 0.5309 | 0.4949

C1CCCCCCC1 [cyclooctane] + Cc1ccccc1
Conditions | mass density, 308.15 K [kg/m3] | mass density, 313.15 K [kg/m3] | viscosity, 308.15 K [mPa·s] | viscosity, 313.15 K [mPa·s]
x2 = 0 | 823.6 | 819.7 | 1.803 | 1.636
x2 = 0.0997 | 824.6 | 820.7 | 1.443 | 1.326
x2 = 0.1951 | 826 | 822.1 | 1.198 | 1.112
x2 = 0.3032 | 828.1 | 824.1 | 1.003 | 0.9333
x2 = 0.3904 | 830 | 826 | 0.8748 | 0.8203
x2 = 0.4868 | 832.5 | 828.5 | 0.7834 | 0.701
x2 = 0.5898 | 835.6 | 831.4 | 0.6981 | 0.6579
x2 = 0.6919 | 839.2 | 834.9 | 0.6266 | 0.5912
x2 = 0.8003 | 843.4 | 839.1 | 0.5673 | 0.5364
x2 = 0.888 | 847.3 | 842.9 | 0.5361 | 0.5033

CCc1ccccc1 [ethylbenzene] + C1CCCCCCC1
x1 = 1
Conditions | mass density [kg/m3] | viscosity [mPa·s]
308.15 K | 853.7 | 0.5652
313.15 K | 849.5 | 0.5294

C1CCCCCCC1 [cyclooctane] + CCCCCCC
Conditions | mass density, 308.15 K [kg/m3] | mass density, 313.15 K [kg/m3] | viscosity, 308.15 K [mPa·s] | viscosity, 313.15 K [mPa·s]
x2 = 0 | 823.6 | 819.7 | 1.803 | 1.636
x2 = 0.0938 | 807.7 | 803.8 | 1.405 | 1.288
x2 = 0.1897 | 793 | 789.1 | 1.125 | 1.044
x2 = 0.2896 | 777.5 | 773.6 | 0.9246 | 0.8605
x2 = 0.3979 | 760.8 | 756.8 | 0.7613 | 0.7127
x2 = 0.4949 | 746.1 | 742.2 | 0.6608 | 0.6207
x2 = 0.5964 | 730.9 | 726.9 | 0.5725 | 0.5389
x2 = 0.6919 | 716.7 | 712.7 | 0.5028 | 0.4754
x2 = 0.7795 | 703.6 | 699.7 | 0.4487 | 0.4256
x2 = 0.8934 | 686.9 | 682.8 | 0.4002 | 0.3754
